The record followed here is PMC8807614 (Scientific Reports, 2022).

Numbered stars: 1 amine (or outer) side, 2 acyl side, 3 side chain; on linkers, the order of the positions; unused ones are H or OH. Side chains are listed from the residue outwards. Ends that are not written are not given here. Peptide text beside a SMILES is read from it. * marks the point of attachment. γGlu = O=C(O)[C@H](CCC(=O)[*:2])N[*:1]; Stearoyl = CCCCCCCCCCCCCCCCCC(=O)*; AEEA = NCCOCCOCC(=O)O

One data set has as its target human NPFF2R (Homo sapiens, UniProt Q9Y5X5). Put plainly: NPFF2R functional activity assay (cAMP, HTRF). The data set is classed as cell-based. The following applies: CHO-K1 cells stably expressing human NPFF2R, 1500 cells/well; HTRF cAMP (CisBio); 3 µM forskolin (~90% activity level); 30 min; DPBS, 0.5 mM IBMX, 0.05% casein; 11 concentrations. Here is the method:
Figure 3 GPR10 and NPFF2R profiling of in vivo metabolites of GUB03385. […] (b) cAMP measurements in human NPFF2R CHO-K cells (HTRF technology, CisBio) at a fixed concentration of 3 µM forskolin after 30 min. incubation at room temperature with metabolites and the native peptide NPSF. Representative curves of three determinations.
The Homogenous Time Resolved Fluorescence (HTRF) technology optimized for Gq coupled receptors has thoroughly been described in the CisBio IP1 kit manual (#62IPAPEC) and in the cAMP assay kit manual for Gi coupled receptors (#62AM9PEC). Briefly, this technic is based on a competitive immunoassay using cryptate-labelled anti-cAMP or anti-IP1 antibodies and d2-labeled cAMP or IP1. In the absence of cellular cAMP or IP1, the anti-cryptate conjugate may get into proximity to the d2 conjugate and energy (FRET) can be transferred from cryptate to d2. Chem-1 cells stably expressing the human prolactin releasing peptide receptor (GPR10, Eurofins, # HTS057C) and irradiated CHO-K1 cells stably expressing the human NPFF2R (PerkinElmer, #ES-490-CF) were applied as cells in suspension, brought to life from frozen cell stocks immediately before assay performance. 384-Well (Corning, #4513) assay formats with a total assay volume of 20 µl were applied. GPR10 cells (10.000 cells/well) were incubated with agonist peptides and the NPFF2R cells (1500 cells/well) were incubated with agonist peptides and forskolin (~ 90% activity level) for 30 min at 37 °C using IP1 kit stimulation buffer and DPBS (Sigma, #D8537) containing 0.5 mM IBMX (Sigma, # I5879), receptively. Both stimulation buffers were supplemented with 0.05% casein (Sigma, # C4765-10 ml). After addition of HTRF® detection reagents and incubation with shaking (2400 rpm) for one hour at room temperature signals at 620 and 665 nm (raw counts: ratio of 665/620) were detected at a ClarioStar plate reader (BMG Labtech, Ortenberg, Germany). Concentration–response evaluation of compounds was performed with 11 concentrations of agonist peptides (covering 3 decades) and EC50 values were calculated by nonlinear regression using sigmoid concentration–response with variable slope. Data were analysed using GraphPad v9.1 software (GraphPad, La Jolla, CA).
For orientation: TR-FRET usually uses a lanthanide donor and a delayed reading to cut background.

Data set [1] addresses T1, human prolactin releasing peptide receptor (GPR10) (Homo sapiens, UniProt P49683).
T1 sequence (P49683 1-370): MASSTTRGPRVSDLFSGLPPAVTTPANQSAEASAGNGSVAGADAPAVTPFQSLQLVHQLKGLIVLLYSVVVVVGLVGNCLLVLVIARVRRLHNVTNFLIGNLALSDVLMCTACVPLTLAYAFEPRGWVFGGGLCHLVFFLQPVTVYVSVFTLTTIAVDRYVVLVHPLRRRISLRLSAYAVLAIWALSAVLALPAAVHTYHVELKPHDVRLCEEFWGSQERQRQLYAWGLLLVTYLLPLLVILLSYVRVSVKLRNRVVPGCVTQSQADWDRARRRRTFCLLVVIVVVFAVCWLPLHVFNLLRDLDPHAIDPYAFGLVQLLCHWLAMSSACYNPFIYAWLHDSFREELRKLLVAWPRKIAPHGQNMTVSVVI
Put plainly: GPR10 functional activity assay (IP1, HTRF). To be noted: Chem-1 cells stably expressing human GPR10, 10.000 cells/well; HTRF IP1 (CisBio); 30 min at 37 °C; IP1 stimulation buffer with 0.05% casein; 11 concentrations. The data set is classed as cell-based.

The nature of data set [2]: In vivo plasma metabolite identification (MetID) of GUB03385. To be noted: UPLC-Orbitrap MS; for %AUC 30 min: metabolite of GUB03385 in plasma of DIO mice 30 min after GUB03385 1250 nmol/kg SC; for %AUC 60 min: metabolite of GUB03385 in plasma of DIO mice 60 min after GUB03385 1250 nmol/kg SC; for %AUC 120 min: metabolite of GUB03385 in plasma of DIO mice 120 min after GUB03385 1250 nmol/kg SC. Further details: species or system DIO mice. Here is the method: Cardiac blood samples from DIO mice dosed with GUB03385 (1250 nmol/kg, SC, n = 10) were collected after 5, 10, 30, 60 and 120 min. Anaesthesia was performed using 2–4% isoflurane/O2 (Attane Vet., ScanVet Animal Health, Fredensborg, Denmark) inhalation. Blood samples were centrifuged (3000 g, 10 min) and plasma supernatants were stored at − 80 °C until MS analysis which was performed by Admescope Ltd (Oulu, Finland). Plasma precipitation was performed with twofold volume of cold acetonitrile containing 1% of formic acid. After centrifugation ([…], 10 min), supernatant was pipetted to 96-well plate and analysed using a Waters Acquity UPLC coupled to a Thermo Q-Exactive Focus Orbitrap MS. Peptides were separated on a Waters CSH C18 (2.1 × 50 mm, […]) column with a linear gradient from 2 to 40% acetonitrile over 3.5 min at a flowrate of 0.5 mL/min. Mass spectra were acquired in positive ionization mode in the mass range 133–2000 m/z with a resolution of 35,000; MS/MS data were acquired at a resolution of 17,500 in AIF mode with a normalized collision energy of 57. Data analysis and profiling of metabolites was performed by Admescope using Thermo XCalibur 4.1.31.9.

human NPFF2R, sequence (Q9Y5X5 whole entry): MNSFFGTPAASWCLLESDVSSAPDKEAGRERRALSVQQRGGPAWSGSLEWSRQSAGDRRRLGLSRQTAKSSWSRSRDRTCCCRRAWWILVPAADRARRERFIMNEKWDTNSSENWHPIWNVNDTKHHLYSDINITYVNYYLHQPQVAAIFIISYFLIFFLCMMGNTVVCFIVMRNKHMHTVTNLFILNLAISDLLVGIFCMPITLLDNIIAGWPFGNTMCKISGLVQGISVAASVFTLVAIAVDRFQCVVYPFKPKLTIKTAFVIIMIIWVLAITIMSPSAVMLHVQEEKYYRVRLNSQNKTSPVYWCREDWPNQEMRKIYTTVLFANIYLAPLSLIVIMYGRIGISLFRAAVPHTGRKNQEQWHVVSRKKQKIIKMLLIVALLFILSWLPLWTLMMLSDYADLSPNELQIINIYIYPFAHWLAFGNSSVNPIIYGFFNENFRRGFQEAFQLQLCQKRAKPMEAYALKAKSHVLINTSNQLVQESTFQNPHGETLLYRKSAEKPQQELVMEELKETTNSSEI

For orientation: EC50 means the concentration at which the effect is half-maximal. On to TPDINPAWYASRGIRPVGRF-NH2 [PrRP20], for which the EC50 at human NPFF2R is > 5000 nM; in data set [1], 0.2 nM.

In the case of `CCCCCCCCCCCCCCCCCC(=O)N[C@@H](CCC(=O)NCCOCCOCC(=O)NCCOCCOCC(=O)NCCCC[C@H](NC(=O)CNC(=O)[C@H](CCCNC(=N)N)NC(=O)[C@@H](N)CO)C(=O)N[C@@H](CCCNC(=N)N)C(=O)N1CCC[C@H]1C(=O)N[C@H](C(=O)NCC(=O)O)C(C)C)C(=O)O` [GUB08249] (H-SRGK([AEEA-AEEA-γGlu-Stearoyl])RPVG-OH; C-terminus assumed), in data set [2], the “%AUC 30 min” value came to 18%, the “%AUC 60 min” value came out at 9% and the “%AUC 120 min” value came to 7%.

In the case of `CCCCCCCCCCCCCCCCCC(=O)N[C@@H](CCC(=O)NCCOCCOCC(=O)NCCOCCOCC(=O)NCCCC[C@H](NC(=O)CNC(=O)[C@H](CCCNC(=N)N)NC(=O)[C@H](CO)NC(=O)[C@H](C)NC(=O)[C@H](Cc1ccc(O)cc1)NC(=O)[C@H](Cc1c[nH]c2ccccc12)NC(=O)[C@H](C)NC(=O)[C@@H]1CCCN1C(=O)[C@H](CC(N)=O)NC(=O)[C@@H](NC(=O)[C@H](CC(=O)O)NC(=O)[C@@H]1CCCN1C(=O)[C@@H](NC(=O)[C@H](CCCNC(=N)N)NC(=O)[C@@H](NC(=O)[C@H](CCC(=O)O)NC(=O)[C@H](CCSC)NC(=O)[C@H](CO)NC(=O)[C@H](Cc1c[nH]cn1)NC(=O)[C@H](CCCNC(=N)N)NC(=O)[C@H](Cc1c[nH]cn1)NC(=O)[C@@H](NC(=O)[C@H](CCCNC(=N)N)NC(=O)[C@@H](N)CO)[C@@H](C)O)[C@@H](C)CC)[C@@H](C)O)[C@@H](C)CC)C(=O)N[C@@H](CCCNC(=N)N)C(=O)N1CCC[C@H]1C(=O)N[C@H](C(=O)NCC(=O)N[C@@H](CCCNC(=N)N)C(=O)N[C@@H](Cc1ccccc1)C(N)=O)C(C)C)C(=O)O` [GUB03385] (H-SRTHRHSMEIRTPDINPAWYASRGK([AEEA-AEEA-γGlu-Stearoyl])RPVGRF-NH2), the “time of degradation after subcutaneous administration” value in data set [2] (DIO mice, 1250 nmol/kg SC, plasma) is < 30 min.

Take `CCCCCCCCCCCCCCCCCC(=O)N[C@@H](CCC(=O)NCCOCCOCC(=O)NCCOCCOCC(=O)NCCCC[C@H](NC(=O)CNC(=O)[C@H](CCCNC(=N)N)NC(=O)[C@H](CO)NC(=O)[C@H](C)N)C(=O)N[C@@H](CCCNC(=N)N)C(=O)N1CCC[C@H]1C(=O)N[C@H](C(=O)NCC(=O)O)C(C)C)C(=O)O` [GUB08247] (H-ASRGK([AEEA-AEEA-γGlu-Stearoyl])RPVG-OH; C-terminus assumed): in data set [2], the “%AUC 30 min” value was 34%, the “%AUC 60 min” value came out at 7% and the “%AUC 120 min” value was found to be 1%.

Take `CCCCCCCCCCCCCCCCCC(=O)N[C@@H](CCC(=O)NCCOCCOCC(=O)NCCOCCOCC(=O)NCCCC[C@H](N)C(=O)N[C@@H](CCCNC(=N)N)C(=O)N1CCC[C@H]1C(=O)N[C@H](C(=O)NCC(=O)O)C(C)C)C(=O)O` [GUB08253] (H-K([AEEA-AEEA-γGlu-Stearoyl])RPVG-OH; C-terminus assumed): in data set [2], the “%AUC 60 min” value is 11% and the “%AUC 120 min” value is on record as 15%.

As to `CCCCCCCCCCCCCCCCCC(=O)N[C@@H](CCC(=O)NCCOCCOCC(=O)NCCOCCOCC(=O)NCCCC[C@H](NC(=O)CNC(=O)[C@H](CCCNC(=N)N)NC(=O)[C@@H](N)CO)C(=O)N[C@@H](CCCNC(=N)N)C(=O)N1CCC[C@H]1C(=O)N[C@H](C(=O)NCC(=O)N[C@@H](CCCNC(=N)N)C(=O)N[C@@H](Cc1ccccc1)C(N)=O)C(C)C)C(=O)O` [GUB08248] (H-SRGK([AEEA-AEEA-γGlu-Stearoyl])RPVGRF-NH2), in data set [2], the “%AUC 30 min” value amounted to 11% and the “%AUC 60 min” value is given as 5%.

In the case of `CCCCCCCCCCCCCCCCCC(=O)N[C@@H](CCC(=O)NCCOCCOCC(=O)NCCOCCOCC(=O)NCCCC[C@H](NC(=O)CNC(=O)[C@H](CCCNC(=N)N)NC(=O)[C@@H](N)CO)C(=O)N[C@@H](CCCNC(=N)N)C(=O)N1CCC[C@H]1C(=O)N[C@H](C(=O)O)C(C)C)C(=O)O` [GUB08250] (H-SRGK([AEEA-AEEA-γGlu-Stearoyl])RPV-OH; C-terminus assumed), in data set [2], the “%AUC 30 min” value came out at 48%, the “%AUC 60 min” value is listed as 23% and the “%AUC 120 min” value came out at 14%.

For `CCCCCCCCCCCCCCCCCC(=O)N[C@@H](CCC(=O)NCCOCCOCC(=O)NCCOCCOCC(=O)NCCCC[C@H](N)C(=O)N[C@@H](CCCNC(=N)N)C(=O)N1CCC[C@H]1C(=O)N[C@H](C(=O)O)C(C)C)C(=O)O` [GUB08254] (H-K([AEEA-AEEA-γGlu-Stearoyl])RPV-OH; C-terminus assumed), in data set [2], the “%AUC 60 min” value is recorded as 5% and the “%AUC 120 min” value is 11%.

`CCCCCCCCCCCCCCCCCC(=O)N[C@@H](CCC(=O)NCCOCCOCC(=O)NCCOCCOCC(=O)NCCCC[C@H](N)C(=O)N[C@@H](CCCNC(=N)N)C(=O)N1CCC[C@H]1C(=O)N[C@H](C(=O)NCC(=O)N[C@@H](CCCNC(=N)N)C(=O)O)C(C)C)C(=O)O` [GUB08252] (H-K([AEEA-AEEA-γGlu-Stearoyl])RPVGR-OH; C-terminus assumed): in data set [2], the “%AUC 60 min” value came to 11% and the “%AUC 120 min” value worked out at 10%.

`CCCCCCCCCCCCCCCCCC(=O)N[C@@H](CCC(=O)NCCOCCOCC(=O)NCCOCCOCC(=O)NCCCC[C@H](NC(=O)CN)C(=O)N[C@@H](CCCNC(=N)N)C(=O)N1CCC[C@H]1C(=O)N[C@H](C(=O)NCC(=O)N[C@@H](CCCNC(=N)N)C(=O)N[C@@H](Cc1ccccc1)C(N)=O)C(C)C)C(=O)O` [GUB08251] (H-GK([AEEA-AEEA-γGlu-Stearoyl])RPVGRF-NH2): in data set [2], the “%AUC 60 min” value worked out at 7% and the “%AUC 120 min” value is reported as 8%.

As for `CC[C@H](C)[C@H](NC(=O)CNC(=O)[C@H](CCCNC(=N)N)NC(=O)[C@H](CO)NC(=O)[C@H](C)NC(=O)[C@H](Cc1ccc(O)cc1)NC(=O)[C@H](Cc1c[nH]c2ccccc12)NC(=O)[C@H](C)NC(=O)[C@@H]1CCCN1C(=O)[C@H](CC(N)=O)NC(=O)[C@@H](NC(=O)[C@H](CC(=O)O)NC(=O)[C@@H]1CCCN1C(=O)[C@@H](NC(=O)[C@H](CCCNC(=N)N)NC(=O)[C@@H](NC(=O)[C@H](CCC(=O)O)NC(=O)[C@H](CCSC)NC(=O)[C@H](CO)NC(=O)[C@H](Cc1c[nH]cn1)NC(=O)[C@H](CCCNC(=N)N)NC(=O)[C@H](Cc1c[nH]cn1)NC(=O)[C@@H](NC(=O)[C@H](CCCNC(=N)N)NC(=O)[C@@H](N)CO)[C@@H](C)O)[C@@H](C)CC)[C@@H](C)O)[C@@H](C)CC)C(=O)N[C@@H](CCCNC(=N)N)C(=O)N1CCC[C@H]1C(=O)N[C@H](C(=O)NCC(=O)N[C@@H](CCCNC(=N)N)C(=O)N[C@@H](Cc1ccccc1)C(N)=O)C(C)C` [PrRP31], at human NPFF2R, the EC50 is > 5000 nM.
